Read-outs that look alike come from different tables or passages of the source.
Columns and labels:
[1] = tested on: colon cancer cell line HCT116; experiment: Cell proliferation assay (MTS); type: cell-based; settings: for IC50: Homo sapiens, HCT-116, HCT116, 72 hours, 0.04 to 10 μM, read-out: Anti-proliferation IC50 (μM), MTS assay
Procedure: The colon cancer cell line HCT116 was used in the cell proliferation assay. The cells were plated in 100 μl of growing medium/well in 96-well plates at 5,000 cells per well and treated with compounds from 0.04 to 10 μM for 72 hours, after which point the cells were analyzed by colorimetric MTS assay (Promega, Madison, Wis., USA). Data were fit using GraphPad Prism (mean±SEM, n 3).

[2] = tested on: Wnt/β-catenin transcription; experiment: Wnt-3A-stimulated TOPFlash reporter assay in HEK293 cells; type: cell-based; settings: Homo sapiens, Wnt-3A conditioned medium, 8 hour treatment, read-out: Inhibition Wnt/β-catenin transcription TopFlash IC50
Procedure: Stably transfected cells were seeded in 100 μl of cell growth medium/well in 96-well plates at 100% confluency. Fifty microliters of Wnt-3A conditioned medium containing the chemical compounds to be tested or DMSO was added to each well. After an 8 hour treatment, the cells were washed once with PBS and lysed with 55 μl of Passive Lysis Buffer supplied in the Dual-Luciferase Reporter Assay kit (Promega, Madison, Wis.). Twenty-five microliters of cell lysate was used for measuring luciferase activity in a 96-well plate reader (FluoStar Optima, BMG Labtech, Chicago, Ill.). Data were fit using GraphPad Prism (mean±SEM, n>=2).

Frizzled1-GFP = target: T1, Frizzled1-GFP (Homo sapiens, UniProt Q9UP38); experiment: Frizzled internalization assay (Fzd1-GFP); type: cell-based; set-up: key: Punctate similar to control=0; trace amount of punctate greater than control=1; moderate=3; strong=5; settings: 6 hours, 0-5 point scale
T1 construct: expressed in transfected cells
Procedure: The Fzd1-GFP assay was performed following a procedure similar to previously published work (Chen, M. Y.; Wang, J. B.; Lu, J. Y.; Bond, M. C.; Ren, X. R.; Lyerly, H. K.; Barak, L. S.; Chen, W. Biochemistry 2009, 48, 10267). Cells stably expressing Frizzled1-GFP plated in confocal dishes were treated, after 24 hours, with 12.5 μM of test compound or DMSO for 6 hours at 37° C. followed by fixation with 4% paraformaldehyde. The cells were then examined by microscopy using a LSM 510-Meta confocal microscope (Carl Zeiss, Thornwood, N.Y., USA) equipped with 40× and 100× apo chromat objectives. YFP was excited using a 488-nm argon laser line. Images were processed using the LSM software Image Browser (CarlZeiss, Thornwood, N.Y., USA). Plates were read twice in blinded fashion using a 0-5 point scale. ^aPunctate similar to control=0, trace amount of punctate greater than control=1, moderate=3, strong=5.

β-catenin = experiment: Western blot of cytosolic β-catenin in HCT-116 cells; type: cell-based; settings: Homo sapiens, 2.0 μM compound, read-out: Remaining cytosolic β-catenin
Procedure: Western blots were performed following a procedure similar to previously published work (Osada, T.; Chen, M. Y.; Yang, X. Y.; Spasojevic, I.; Vandeusen, J. B.; Hsu, D.; Clary, B. M.; Clay, T. M.; Chen, W.; Morse, M. A.; Lyerly, H. K. Cancer Research 2011, 71, 4172). HCT-116 cells were grown to about 80% confluency in poly-D-lysine coated six-well plates 48 hours before treatment and followed by 2.0 μM compounds or DMSO incubation for 18 hours in growth medium. After treatment, the cytosolic fraction was isolated as described (Osada, T.; Chen, M. Y.; Yang, X. Y.; Spasojevic, I.; Vandeusen, J. B.; Hsu, D.; Clary, B. M.; Clay, T. M.; Chen, W.; Morse, M. A.; Lyerly, H. K. Cancer Research 2011, 71, 4172). Immunoblots using antibodies to […] (E-5, Santa Cruz Biotechnology catalog number sc-7963) was used to detect β-catenin protein levels in the cytosol, and immunoblots using antibodies to β-actin (C-4, Santa Cruz Biotechnology, catalog number SC-47778) was used for loading controls.
Inhibition of Wnt signaling was determined by analyzing the reduction of cytosolic β-catenin by Western blot (FIG. 1, 2).

[3] = niclosamide dosed orally as a solution at 200 mg/kg, reported (Osada 2011); cited from earlier work
[4] = Pharmacokinetic studies, niclosamide in mouse plasma; type: in vivo, CD1 mice; settings: mice
Procedure: For niclosamide dosed IV, niclosamide was dissolved in a solvent of 67% polyethylene glycol 400 and 33% N,N-dimethylacetamide at a concentration of 3.27 mg/mL and tail vein injected at a dose of 2.6 mg/kg of body weight. Blood samples were obtained at predose and at 0.08, 0.17, 0.33, 0.67, 1.5, 4, 8, 12 hours after drug administration. For oral dosing of compound 74, compound 74 was dissolved in a solvent of 90% polyethylene glycol 300 and 10% 1-methyl-2-pyrrolidinone at a concentration of 20 mg/mL and gavaged at a dose of 200 mg/kg of body weight. Blood samples were obtained at predose and at 0.25, 0.5, 1, 2, 4, 8 hours after drug administration. For oral dosing of compound 61, compound 61 was dissolved in corn oil at a concentration of 20 mg/mL and dosed at 200 mg/kg of body weight. Blood samples were obtained at predose and at 0.25, 0.5, 0.75, 1, 1.5, 4, 8, 12, 24, 48, and 72 hours after drug administration. All the solvent reagents were purchased from Sigma-Aldrich (St. Louis, Mo., USA). CD1 mice were used in the pharmacokinetic studies. Quantification of niclosamide in mouse plasma was done by LC/MS-MS using methods similar to those previously published (Osada, T.; Chen, M. Y.; Yang, X. Y.; Spasojevic, I.; Vandeusen, J. B.; Hsu, D.; Clary, B. M.; Clay, T. M.; Chen, W.; Morse, M. A.; Lyerly, H. K. Cancer Research 2011, 71, 4172.).

[5] = tested on: High Fat Diet (HFD)-Induced Hepatic Steatosis; experiment: Reduction of high fat diet (HFD)-induced hepatic steatosis; type: in vivo, C57BL/6J mice; settings: 200 mg/kg oral gavage, three months
Procedure: Five week old male C57BL/6J mice were fed with chow or high fat diet for two months, followed by same diet and oral gavage of vehicle (corn oil) or compound 61 at 200 mg/kg for three months (daily for 6 days a week from Monday to Saturday). Liver tissue samples were collected after the three month treatment. Pictures shown in FIG. 9 are representative liver sections stained with H&E. A. Chow mice with vehicle; B. Chow mice with compound 61; C. HFD mice with vehicle; D. HFD mice with compound 61. […] The white fat deposits look similar in both panel A and B. However, when mice were fed a high fat diet (panel C), a large amount of white fatty deposits can be seen along with a large amount of dysplastic liver tissue.

T1 sequence (Q9UP38 70-647): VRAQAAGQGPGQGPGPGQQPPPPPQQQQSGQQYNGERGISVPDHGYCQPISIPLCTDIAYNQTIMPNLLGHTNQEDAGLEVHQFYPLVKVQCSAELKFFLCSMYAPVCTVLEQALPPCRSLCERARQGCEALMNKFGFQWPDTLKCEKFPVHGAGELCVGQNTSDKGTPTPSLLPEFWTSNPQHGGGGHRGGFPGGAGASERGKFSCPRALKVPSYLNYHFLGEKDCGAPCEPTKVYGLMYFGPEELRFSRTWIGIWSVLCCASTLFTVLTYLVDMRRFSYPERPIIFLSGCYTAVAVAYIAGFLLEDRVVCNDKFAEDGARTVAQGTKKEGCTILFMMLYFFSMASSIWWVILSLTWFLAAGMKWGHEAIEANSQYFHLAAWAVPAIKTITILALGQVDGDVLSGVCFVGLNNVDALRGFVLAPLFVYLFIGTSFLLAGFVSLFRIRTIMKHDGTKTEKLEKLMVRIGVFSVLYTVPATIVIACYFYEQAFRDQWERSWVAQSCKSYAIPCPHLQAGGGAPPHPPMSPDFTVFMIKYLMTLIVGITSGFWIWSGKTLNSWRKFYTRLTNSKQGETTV

Structure (SMILES)	IC50 [1] [µM]	IC50 ([2]; HEK293, 8 h) [nM]	Fzd1-GFP internalization @12.5 μM (Frizzled1-GFP)	activity at 2 µM (β-catenin; HCT-116, 18 h) [%]	Time plasma levels of niclosamide were above the TOPFlash IC50 [3]	Pharmacokinetic properties after oral administration, in words [4]	Anti-proliferation activity, MTS assay, in words ([1]; HCT116, up to 10 μM)	Plasma exposure of niclosamide compared to 200 mg/kg niclosamide dosed orally, in words ([4]; compound 61 in corn oil, 200 mg/kg oral)	Liver fat deposits and tissue architecture (H&E sections), high fat diet ([5]; high fat diet)	Effect on the liver (H&E sections), chow diet ([5]; normal chow diet)	IC50 ([2]; HEK293) [nM]	activity at 2 µM (β-catenin; 18 hours) [%]
O=C(Nc1ccc([N+](=O)[O-])cc1Cl)c1cc(Cl)ccc1O [A, 5-chloro-N-(2-chloro-4-nitrophenyl)-2-hydroxybenzamide, reference compound]	0.45 ± 0.05	340 ± 80	5	8	less than 1 hour							
O=C(Nc1ccc(C(F)(F)F)cc1Cl)c1cc(Cl)ccc1O [Compound 7, 5-chloro-N-(2-chloro-4-(trifluoromethyl)phenyl)-2-hydroxybenzamide]	0.54 ± 0.08	560 ± 210	5	6		poor pharmacokinetic properties						
O=C(Nc1ccc(C(F)(F)F)cc1)c1cc(Cl)ccc1O [Compound 8, 5-chloro-2-hydroxy-N-(4-(trifluoromethyl)phenyl)benzamide]	0.67 ± 0.09	290 ± 60	5	7								
O=C(Nc1ccc(Cl)cc1Cl)c1cc(Cl)ccc1O [Compound 14, 5-chloro-N-(2,4-dichlorophenyl)-2-hydroxybenzamide]	1.18 ± 0.14	420 ± 100	5	7								
O=C(Nc1c(Cl)cccc1Cl)c1cc(Cl)ccc1O [Compound 18, 5-chloro-N-(2,6-dichlorophenyl)-2-hydroxybenzamide]	> 10	> 12000	0	100			no effect					
CN(C(=O)c1cc(Cl)ccc1O)c1ccc(C(F)(F)F)cc1 [Compound 24, 5-chloro-2-hydroxy-N-methyl-N-(4-(trifluoromethyl)phenyl)benzamide]	> 10	> 12000	0	96								
CCCCCCCC(=O)Oc1ccc(Cl)cc1C(=O)Nc1ccc([N+](=O)[O-])cc1Cl [Compound 61, 4-Chloro-2-((2-chloro-4-nitrophenyl)carbamoyl)phenyl octanoate]	0.61 ± 0.11	230 ± 60	5	8				significantly increased plasma exposure of niclosamide	limited white fatty deposits without the dysplastic tissue architecture	minimal to no effect		
CCOC(=O)Oc1ccc(Cl)cc1C(=O)Nc1ccc(C(F)(F)F)cc1Cl [Compound 70, 4-Chloro-2-((2-chloro-4-(trifluoromethyl)phenyl)carbamoyl)phenyl ethyl carbonate]	0.51 ± 0.06		5								340 ± 120	8
O=c1oc2ccc(Cl)cc2c(=O)n1-c1ccc(C(F)(F)F)cc1Cl [Compound 73, 6-Chloro-3-(2-chloro-4-(trifluoromethyl)phenyl)-2H-benzo[e][1,3]oxazine-2,4(3H)-dione]	0.55 ± 0.07	330 ± 100	5	9								
O=c1oc2ccc(Cl)cc2c(=O)n1-c1ccc(C(F)(F)F)cc1 [Compound 74, 6-chloro-3-(4-(trifluoromethyl)phenyl)-2H-benzo[e][1,3]oxazine-2,4(3H)-dione]		320 ± 30				poor pharmacokinetic properties						
